Data as given in the OPERA property sets (Mansouri et al. 2018).
Values after ≈ are worked out from the molar mass of the structure shown.

conditions: not given

Row | logP | SMILES | solubility [mM]
1 | 2.3 | CCCCCOC(C)=O | –
2 | 0.08 | Cc1ccc(O[Si]23OCCN(CCO2)CCO3)cc1 | –
3 | 0.63 | COc1cc(S(C)=O)ccc1-c1cn2cccnc2n1 (configuration not stated) | –
4 | -1.01 | O=C1CCC(c2ccc[n+]([O-])c2)N1 (configuration not stated) | –
5 | -0.17 | CCN(O)CC | –
6 | – | c1ccc(N=Nc2ccccc2)cc1 | 0.0351 (≈ 0.0064 mg/mL)
7 | 3.15 | CSc1nc2ccccc2s1 | –
8 | 3.34 | CCCC(=O)OCN1C(=O)NC(c2ccccc2)(c2ccccc2)C1=O | –
9 | 2.27 | CCCCOCCNc1ccccc1C(N)=O | –
10 | 2.9 | CCCCCCC(C)O (configuration not stated) | –
11 | – | O=P(OC(Cl)CCCl)(OC(Cl)CCCl)OC(Cl)CCCl (configuration not stated) | 0.232 (≈ 0.1 mg/mL)
12 | 1.5 | O=C(O)c1c(C(=O)O)c(C(=O)O)c(C(=O)O)c(C(=O)O)c1C(=O)O | –
13 | -0.04 | CCN1CCCC1=O | –
14 | -0.61 | CC(=O)OCCOCn1cnc2cnc(N)nc21 | –
15 | 2.1 | CC1CCCC(C)C1O (configuration not stated) | –

Row | SMILES | logP | solubility [mM]
16 | Cc1ccc(N)cc1C | 1.84 | –
17 | N#CCCCCCC#N | 0.05 | –
18 | O=C1CC2C(=O)NCC2CN1 (configuration not stated) | -2.11 | –
19 | CC(Cc1ccc(C(C)(C)C)cc1)CN1C[C@@H](C)O[C@@H](C)C1 (single isomer, unassigned) | 4.93 | –
20 | BrCC1CO1 (configuration not stated) | 0.85 | –
21 | O=C(O)CNCP(=O)(O)O | -3.4 | –

same assay, conditions: 20 °C

Row | SMILES | solubility [mM]
22 | ClC(Br)Br | 12.5 (≈ 2.6 mg/mL)
23 | O=C(O)c1ccccn1 | 7800 (≈ 960 mg/mL)
24 | CCCC(C)C(=O)O (configuration not stated) | 129 (≈ 15 mg/mL)
25 | CC(C)OC(=O)c1ccccc1C(=O)OC(C)C | 1.33 (≈ 0.332 mg/mL)
26 | N#Cc1ccncc1 | 384 (≈ 40 mg/mL)

same assay, conditions: 22 °C

Row | SMILES | solubility [mM]
27 | CN(C)C(=O)Nc1cccc(C(F)(F)F)c1 | 0.366 (≈ 0.085 mg/mL)

same assay, conditions: 22.0 °C

Row | log10 OH rate constant (cm³/molecule/s) | SMILES
28 | -11.5 | CCCCCCl

same assay, conditions: 23.0 °C

Row | log10 OH rate constant (cm³/molecule/s) | SMILES
29 | -9.8 | C=CC(C)(O)CCC=C(C)C (configuration not stated)
30 | -10.9 | CC(C)CC(C)(C)O
31 | -9.89 | CC(=O)C1CC=C(C)CC1 (configuration not stated)

same assay, conditions: 24 °C

Row | SMILES | solubility [mM]
32 | c1ccc2cc3ccccc3cc2c1 | 0.000244 (≈ 4.34e-05 mg/mL)
33 | O=NN1CCCCCC1 | 99.9 (≈ 12.8 mg/mL)

same assay, conditions: 25 °C

Row | SMILES | solubility [mM]
34 | c1ccc2c(c1)[nH]c1ccccc12 | 0.0108 (≈ 0.0018 mg/mL)
35 | C[Se]C | 224 (≈ 24.4 mg/mL)
36 | CNC(=O)Oc1cc(C)cc(C(C)C)c1 | 0.439 (≈ 0.091 mg/mL)
37 | c1ccc2c(c1)-c1cccc3cccc-2c13 | 0.00114 (≈ 0.000231 mg/mL)
38 | CCCCC(CC)CO (configuration not stated) | 6.02 (≈ 0.785 mg/mL)
39 | Cc1ccc(CO)cc1 | 63.1 (≈ 7.71 mg/mL)
40 | O=Nc1ccc2ccccc2c1O | 2.89 (≈ 0.5 mg/mL)
41 | Clc1ccccc1-c1ccccc1 | 0.0256 (≈ 0.00483 mg/mL)
42 | CCN(CCO)c1ccccc1 | 12.1 (≈ 2 mg/mL)
43 | CC(=O)OCC(=O)[C@H]1CC[C@H]2[C@@H]3CCC4=CC(=O)CC[C@]4(C)[C@H]3CC[C@]12C | 0.0234 (≈ 0.00873 mg/mL)
44 | CCOP(=S)(OCC)SCSC(C)(C)C | 0.0176 (≈ 0.00507 mg/mL)
45 | CCCCCCOC(=O)c1ccccc1C(=O)OCCCCCC | 0.000149 (≈ 5e-05 mg/mL)
46 | CN(C)C(=O)Nc1ccc(Cl)c(Cl)c1 | 0.18 (≈ 0.042 mg/mL)
47 | CS | 320 (≈ 15.4 mg/mL)
48 | CC(O)COc1ccccc1 (configuration not stated) | 72.3 (≈ 11 mg/mL)
49 | O=[N+]([O-])c1cccc2ccccc12 | 0.053 (≈ 0.00918 mg/mL)

Row | SMILES | solubility [mM]
50 | CN | 34800 (≈ 1080 mg/mL)
51 | CCCc1ccccc1 | 0.434 (≈ 0.0522 mg/mL)
52 | FC(F)(Cl)Cl | 2.32 (≈ 0.28 mg/mL)
53 | CN(C)c1ccc(N=Nc2ccccc2)cc1 | 0.00102 (≈ 0.00023 mg/mL)
54 | c1ccc2c(c1)ccc1ccc3ccccc3c12 | 1.51e-05 (≈ 3.45e-06 mg/mL)
55 | CCC(Cl)(Cl)Cl | 12.9 (≈ 1.9 mg/mL)
56 | C=C(C)C1CC=C(C)CC1 (configuration not stated) | 0.0777 (≈ 0.0106 mg/mL)
57 | CN(C)c1ccc(N=Nc2ccc(N)cc2)cc1 | 0.0255 (≈ 0.00612 mg/mL)
58 | CC(O)c1ccccc1 (configuration not stated) | 43.8 (≈ 5.35 mg/mL)
59 | c1ccoc1 | 147 (≈ 10 mg/mL)
60 | ClCc1ccccc1 | 4.15 (≈ 0.525 mg/mL)
61 | ClC1=C(Cl)C2(Cl)C3C4OC4C(Cl)C3C1(Cl)C2(Cl)Cl (configuration not stated) | 0.000514 (≈ 0.0002 mg/mL)
62 | C#CCBr | 125 (≈ 14.9 mg/mL)
63 | FC(F)(F)C(F)(Cl)Cl | 0.801 (≈ 0.137 mg/mL)
64 | C=C(Cl)CCl | 19.4 (≈ 2.15 mg/mL)

same assay, conditions: 25.0 °C

Row | SMILES | log10 OH rate constant (cm³/molecule/s)
65 | O=C(O)C(F)(F)F | -12.9
66 | C[Se]C | -10.2
67 | CC(F)(F)CC(F)(F)F | -14.1
68 | c1ccc2c(c1)-c1cccc3cccc-2c13 | -10.3
69 | O=CC(F)(F)Cl | -12.1
70 | c1ccc2cc3ccccc3cc2c1 | -9.96
71 | Oc1cccc2ccccc12 | -9.26
72 | CCOCC=O | -10.8
73 | CCCC(=O)O | -11.6
74 | C=CCOC(F)(F)C(F)F | -10.7
75 | COC(F)(F)C(F)(F)F | -13.9
76 | FC(F)(F)COCC(F)(F)F | -12.8
77 | CCOC(F)(F)C(F)F | -12.6
78 | ClCBr | -13.1
79 | Clc1c(Cl)c(Cl)c2c(c1Cl)Oc1ccccc1O2 | -12.1
80 | FC(F)=C(F)OC(F)(F)F | -11.4
81 | C=CC(C)(C)O | -10.2
82 | O=CC(Cl)(Cl)Cl | -11.8
83 | CCCc1c(F)c(F)c(F)c(F)c1F | -11.5
84 | CCCBr | -11.9
85 | OCC(F)(F)C(F)(F)C(F)(F)F | -13

same assay, conditions: 27.0 °C

Row | log10 OH rate constant (cm³/molecule/s) | SMILES
86 | -10.2 | Cc1ccco1

same assay, conditions: 30 °C

Row | SMILES | solubility [mM]
87 | ClC(Cl)c1ccccc1 | 1.55 (≈ 0.25 mg/mL)
